Reference: patent US11560391B2, “Sulfonylurea compounds as inhibitors of interleukin-1 activity” (Genentech, Inc., priority 2018, dated 2023)
Read-outs that look alike come from different tables or passages of the source.

Legend:
[1] = target: T1, NLRP3 inflammasome (Homo sapiens, UniProt Q96P20); test: NLRP3 inflammasome activation assay in LPS-primed, nigericin-stimulated PBMCs, IL-1β release; type: cell-based; details: PBMC, LPS priming, 10 μM nigericin
T1 construct: freshly isolated from human peripheral blood from healthy donors; StemCells Technologies; host or cells: primary human PBMCs
Procedure, shortened: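 Fresh or cryopreserved human PBMCs primed with 100 ng/mL LPS for 3 h, pre-incubated 30 min with compound (0.00017-10 uM, or 2-fold 20-point series from 40 μM), then stimulated with 10 μM nigericin for 1.5 h at 37 °C. Supernatant IL-1β measured by ELISA or by HTRF (665/620 ratio).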

[2] = test system: THP-1 ASC-GFP cells; test: THP-1 ASC-GFP speck assay (NLRP3 inflammasome activation, nigericin); type: cell-based; details: THP1-ASC-GFP; PMA-differentiated, LPS primed, 10 μM nigericin
Method: THP-1 ASC-GFP cell line was purchased from Invivogen, San Diego, for infammasome activation assay. THP-1 ASC-GFP cells stably express a 37.6 kDa ASC::GFP fusion protein that enables monitoring of spec formation by microscopy after activation of NLRP3 dependent inflammasome pathway. Cells were maintained at a density of 600,000 cells/mL in growth media consisting of RPMI 1640, 2 mM L-glutamine, 25 mM HEPES and 10% heat inactivated fetal bovine serum at 37° C. and 5% CO2. Cells were passaged every 3-4 days and used for assays for up to 20 passages.
THP-1 ASC-GFP cells were collected by centrifuging cells at 800 RPM for 5 minutes. Cell culture supernatant was removed and cells were re-suspended in fresh media at density of 1×10^6 cells/mL in assay media consisting of RPMI 1640, 2 mM L-glutamine, 25 mM HEPES and 10% heat inactivated fetal bovine serum. Phorbol 12-myristate 13-acetate (PMA) (Invivogen,tlrl-pma) was added to the cell suspension at a final concentration of 500 ng/ml and mixed thoroughly. 40,000 cells were added per well of a 384 well plate and differentiated into macrophages overnight at 37° C. and 5% CO2. Cells were primed with 1 μg/mL of lipopolysaccharide (Invivogen Ultrapure lipopolysaccharide from E. coli, tlrl-3pelps) in assay media for 3 hours at 37° C. and 5% CO2. After priming, media was removed and THP-1 ASC-GFP cells were preincubated with serially diluted test compounds with starting concentration of 40 μM followed by 2-fold dilution for a 20-point curve or vehicle (DMSO) for 30 min in assay media at 37° C. and 5% CO2. Cells were then stimulated with 10 μM nigericin (Invivogen, tlrl-nig-5) for 90 min at 37° C. and 5% CO2 to activate NLRP3 dependent inflammasome pathway and spec formation. After stimulation, cells were fixed with 4.8% paraformaldehyde (Electron Microscopy Sciences #15710-S) and incubated at room temperature for 15 min. Cells were then washed 3-times with 100 μL of phosphate buffered saline and permeabilized in the presence of premeablization/block buffer for 20 min at room temperature. Cells were then washed 3-times with 100 μL phosphate buffered saline and incubated for 1 hr at room temperature in the presence of hoechst. After staining with Hoechst, cells were washed 3-times with 100 μL phosphate buffered saline and imaged for ASC spec formation.
THP-1 ASC-GFP cells were imaged in 488 and Hoechst channels. Hoechst channel was used for cell count and 488 channel was used to identify number of GFP ASC specks in imaged fields. Percentage of cells with a spec was calculated by dividing the number of GFP positive spots by total number of cells.

T1 sequence (Q96P20 whole entry): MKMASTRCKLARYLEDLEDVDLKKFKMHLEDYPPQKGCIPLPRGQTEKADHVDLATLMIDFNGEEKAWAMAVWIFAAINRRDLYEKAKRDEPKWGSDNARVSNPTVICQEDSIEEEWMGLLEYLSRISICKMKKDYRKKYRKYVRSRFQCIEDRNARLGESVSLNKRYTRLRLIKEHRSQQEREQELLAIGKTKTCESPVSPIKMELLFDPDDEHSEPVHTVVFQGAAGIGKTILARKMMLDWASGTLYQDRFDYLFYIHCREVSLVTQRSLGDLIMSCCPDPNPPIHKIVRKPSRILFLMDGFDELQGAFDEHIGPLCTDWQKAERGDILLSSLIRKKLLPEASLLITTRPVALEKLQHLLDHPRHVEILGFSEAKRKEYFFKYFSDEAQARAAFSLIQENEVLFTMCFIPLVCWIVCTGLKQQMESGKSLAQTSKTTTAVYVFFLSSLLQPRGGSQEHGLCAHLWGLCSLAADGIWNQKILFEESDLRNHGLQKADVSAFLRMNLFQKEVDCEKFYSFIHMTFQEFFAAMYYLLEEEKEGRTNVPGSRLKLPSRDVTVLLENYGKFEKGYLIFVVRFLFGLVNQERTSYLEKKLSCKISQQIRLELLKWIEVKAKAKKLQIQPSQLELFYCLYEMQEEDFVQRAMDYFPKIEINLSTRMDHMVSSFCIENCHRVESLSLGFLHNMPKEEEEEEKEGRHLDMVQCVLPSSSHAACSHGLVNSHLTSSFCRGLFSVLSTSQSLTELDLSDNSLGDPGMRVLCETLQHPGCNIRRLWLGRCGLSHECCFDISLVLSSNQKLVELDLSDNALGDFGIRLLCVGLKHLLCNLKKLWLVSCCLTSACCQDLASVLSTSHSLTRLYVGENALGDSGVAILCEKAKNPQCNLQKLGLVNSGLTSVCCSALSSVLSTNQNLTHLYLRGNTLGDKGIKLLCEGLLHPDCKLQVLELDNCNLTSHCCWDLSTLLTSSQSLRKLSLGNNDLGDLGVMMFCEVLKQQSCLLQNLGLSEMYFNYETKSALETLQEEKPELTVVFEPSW

IC50 [2] [µM]	IC50 ([1]; read-out: PMBC IL-1β IC50) [µM]	SMILES	IC50 ([1]; PMBC IL-1β IC50 (μM)) [µM]
12	> 10	Cc1cc(C2CC2)nc(NC(=O)NS(=O)(=O)c2cnn3c2OCCC3)n1 [Example 21, N-((4-cyclopropyl-6-methylpyrimidin-2-yl)carbamoyl)-6,7-dihydro-5H-pyrazolo[5,1-b][1,3]oxazine-3-sulfonamide]	–
> 9.8	> 10	O=C(Nc1nc(-c2ccccc2)cc(C(F)(F)F)n1)NS(=O)(=O)c1cnn2c1OCCC2 [Example 17, N-((4-phenyl-6-(trifluoromethyl)pyrimidin-2-yl)carbamoyl)-6,7-dihydro-5H-pyrazolo[5,1-b][1,3]oxazine-3-sulfonamide]	–
> 20	> 10	CC(C)(C)c1cc(C(C)(C)C)nc(NC(=O)NS(=O)(=O)c2cnn3c2OCCC3)n1 [Example 22, N-((4,6-di-tert-butylpyrimidin-2-yl)carbamoyl)-6,7-dihydro-5H-pyrazolo[5,1-b][1,3]oxazine-3-sulfonamide]	–
1.5	–	CC(C)c1nn(C)c(C(C)C)c1NC(=O)NS(=O)(=O)c1cnn2c1OCC(C)(C)C2 [Example 68, N-((3,5-diisopropyl-1-methyl-1H-pyrazol-4-yl)carbamoyl)-6,6-dimethyl-6,7-dihydro-5H-pyrazolo[5,1-b][1,3]oxazine-3-sulfonamide, ammonia]	–
0.071	–	CO[C@@H]1COc2c(S(=O)(=O)NC(=O)Nc3c(C(C)C)nn(C(F)(F)F)c3C(C)C)cnn2C1 [Example 78a, (S)—N-((3,5-diisopropyl-1-(trifluoromethyl)-1H-pyrazol-4-yl)carbamoyl)-6-methoxy-6,7-dihydro-5H-pyrazolo[5,1-b][1,3]oxazine-3-sulfonamide]	–
0.56	–	CC(C)c1nn(CC(F)F)c(C(C)C)c1NC(=O)NS(=O)(=O)c1cnn2c1OCC(C)(C)C2 [Example 57, N-((1-(2,2-difluoroethyl)-3,5-diisopropyl-1H-pyrazol-4-yl)carbamoyl)-6,6-dimethyl-6,7-dihydro-5H-pyrazolo[5,1-b][1,3]oxazine-3-sulfonamide, ammonia]	–
0.74	–	CC(C)c1nn(C(F)(F)F)c(C(C)C)c1NC(=O)NS(=O)(=O)c1cnn2c1OCC(C)(C)C2 [Example 79, N-((3,5-diisopropyl-1-(trifluoromethyl)-1H-pyrazol-4-yl)carbamoyl)-6,6-dimethyl-6,7-dihydro-5H-pyrazolo[5,1-b][1,3]oxazine-3-sulfonamide]	–
> 20	> 10	CC(C)c1cc(Cl)nc(NC(=O)NS(=O)(=O)c2cnn3c2OCCC3)n1 [Example 16, N-((4-chloro-6-isopropylpyrimidin-2-yl)carbamoyl)-6,7-dihydro-5H-pyrazolo[5,1-b][1,3]oxazine-3-sulfonamide]	–
4.1	–	CN[C@@H]1COc2c(S(=O)(=O)NC(=O)Nc3c(C(C)C)nn(CC(F)F)c3C(C)C)cnn2C1 [Example 70a, (S)—N-((1-(2,2-difluoroethyl)-3,5-diisopropyl-1H-pyrazol-4-yl)carbamoyl)-6-(methylamino)-6,7-dihydro-5H-pyrazolo[5,1-b][1,3]oxazine-3-sulfonamide, ammonia]	–
0.34	–	COc1cc(-c2nc(C(F)(F)F)cc(C(C)C)c2NC(=O)NS(=O)(=O)c2cnn3c2OCCC3)ccn1 [Example 74, Sodium N-((4-isopropyl-2′-methoxy-6-(trifluoromethyl)-[2,4′-bipyridin]-3-yl)carbamoyl)-6,7-dihydro-5H-pyrazolo[5,1-b][1,3]oxazine-3-sulfonamide]	–
1.9	–	CC(C)n1nc2c(c1NC(=O)NS(=O)(=O)c1cnn3c1OC[C@@H](N(C)C)C3)CCC2 [Example 77a, (S)-6-(dimethylamino)-N-((2-isopropyl-2,4,5,6-tetrahydrocyclopenta[c]pyrazol-3-yl)carbamoyl)-6,7-dihydro-5H-pyrazolo[5,1-b][1,3]oxazine-3-sulfonamide]	–
8.2	–	CC(C)c1cc(OC2CC2)nc(C(C)C)c1NC(=O)NS(=O)(=O)c1cnn2c1OCCC2 [Example 81, Sodium N-((6-cyclopropoxy-2,4-diisopropylpyridin-3-yl)carbamoyl)-6,7-dihydro-5H-pyrazolo[5,1-b][1,3]oxazine-3-sulfonamide]	–
0.24	–	CN[C@@H]1COc2c(S(=O)(=O)NC(=O)Nc3c(C(C)C)nn(C(F)(F)F)c3C(C)C)cnn2C1 [Example 64a, (S)—N-((3,5-diisopropyl-1-(trifluoromethyl)-1H-pyrazol-4-yl)carbamoyl)-6-(methylamino)-6,7-dihydro-5H-pyrazolo[5,1-b][1,3]oxazine-3-sulfonamide, ammonia]	–
> 20	> 10	O=C(Nc1nc(-c2ccccc2)cc2c1CCC2)NS(=O)(=O)c1cnn2c1OCCC2 [Example 23, N-((3-phenyl-6,7-dihydro-5H-cyclopenta[c]pyridin-1-yl)carbamoyl)-6,7-dihydro-5H-pyrazolo[5,1-b][1,3]oxazine-3-sulfonamide]	–
0.64	–	CO[C@@H]1COc2c(S(=O)(=O)NC(=O)Nc3c(C(C)C)nn(CC(F)F)c3C(C)C)cnn2C1 [Example 62a, (S)—N-((1-(2,2-difluoroethyl)-3,5-diisopropyl-1H-pyrazol-4-yl)carbamoyl)-6-methoxy-6,7-dihydro-5H-pyrazolo[5,1-b][1,3]oxazine-3-sulfonamide, ammonia]	–
0.9	–	CC(C)n1nc2c(c1NC(=O)NS(=O)(=O)c1cnn3c1OCC(C)(C)C3)CCC2 [Example 61, N-((2-isopropyl-2,4,5,6-tetrahydrocyclopenta[c]pyrazol-3-yl)carbamoyl)-6,6-dimethyl-6,7-dihydro-5H-pyrazolo[5,1-b][1,3]oxazine-3-sulfonamide]	–
> 20	> 10	Cc1nc(NC(=O)NS(=O)(=O)c2cnn3c2OCCC3)nc2c1CCCC2 [Example 24, N-((4-methyl-5,6,7,8-tetrahydroquinazolin-2-yl)carbamoyl)-6,7-dihydro-5H-pyrazolo[5,1-b][1,3]oxazine-3-sulfonamide]	–
0.15	–	CO[C@@H]1COc2c(S(=O)(=O)NC(=O)Nc3c(C(C)C)cc(C(F)(F)F)nc3C(C)C)cnn2C1 [Example 80a, (S)—N-((2,4-diisopropyl-6-(trifluoromethyl)pyridin-3-yl)carbamoyl)-6-methoxy-6,7-dihydro-5H-pyrazolo[5,1-b][1,3]oxazine-3-sulfonamide, ammonia]	–
1.4	–	CCn1nc(C(C)C)c(NC(=O)NS(=O)(=O)c2cnn3c2OCC(C)(C)C3)c1C(C)C [Example 65, N-((1-ethyl-3,5-diisopropyl-1H-pyrazol-4-yl)carbamoyl)-6,6-dimethyl-6,7-dihydro-5H-pyrazolo[5,1-b][1,3]oxazine-3-sulfonamide, ammonia]	–
0.17	–	CO[C@@H]1COc2c(S(=O)(=O)NC(=O)Nc3c(C(C)C)nn(CC(F)(F)F)c3C(C)C)cnn2C1 [Example 59a, (S)—N-((3,5-diisopropyl-1-(2,2,2-trifluoroethyl)-1H-pyrazol-4-yl)carbamoyl)-6-methoxy-6,7-dihydro-5H-pyrazolo[5,1-b][1,3]oxazine-3-sulfonamide, ammonia]	–
0.57	–	CO[C@@H]1COc2c(S(=O)(=O)NC(=O)Nc3c4c(nn3C(C)C)CCC4)cnn2C1 [Example 60a, Sodium (S)—N-((2-isopropyl-2,4,5,6-tetrahydrocyclopenta[c]pyrazol-3-yl)carbamoyl)-6-methoxy-6,7-dihydro-5H-pyrazolo[5,1-b][1,3]oxazine-3-sulfonamide]	–

SMILES	IC50 [2] [µM]	IC50 ([1]; read-out: PMBC IL-1β IC50) [µM]	IC50 ([1]; PMBC IL-1β IC50 (μM)) [µM]
COc1cc(C)nc(NC(=O)NS(=O)(=O)c2cnn3c2OCCC3)n1 [Example 19, N-((4-methoxy-6-methylpyrimidin-2-yl)carbamoyl)-6,7-dihydro-5H-pyrazolo[5,1-b][1,3]oxazine-3-sulfonamide]	> 20	–	> 10
Cc1cc(C)nc(NC(=O)NS(=O)(=O)c2cnn3c2OCCC3)n1 [Example 25, N-((4,6-dimethylpyrimidin-2-yl)carbamoyl)-6,7-dihydro-5H-pyrazolo[5,1-b][1,3]oxazine-3-sulfonamide]	> 20	> 10	–
